The record followed here is publication PMC11792831, “Design and synthesis of doublecortin-like kinase 1 inhibitors and their bioactivity evaluation” (Journal of Enzyme Inhibition and Medicinal Chemistry, 2023).

Usually melting point stands for the temperature, or range, at which the solid turns liquid.

Series [1] has as its target T1, DCLK1 (Homo sapiens, UniProt O15075).
T1 construct: purchased Eurofins (Belgium), contract assay service
T1 sequence (O15075 1-740): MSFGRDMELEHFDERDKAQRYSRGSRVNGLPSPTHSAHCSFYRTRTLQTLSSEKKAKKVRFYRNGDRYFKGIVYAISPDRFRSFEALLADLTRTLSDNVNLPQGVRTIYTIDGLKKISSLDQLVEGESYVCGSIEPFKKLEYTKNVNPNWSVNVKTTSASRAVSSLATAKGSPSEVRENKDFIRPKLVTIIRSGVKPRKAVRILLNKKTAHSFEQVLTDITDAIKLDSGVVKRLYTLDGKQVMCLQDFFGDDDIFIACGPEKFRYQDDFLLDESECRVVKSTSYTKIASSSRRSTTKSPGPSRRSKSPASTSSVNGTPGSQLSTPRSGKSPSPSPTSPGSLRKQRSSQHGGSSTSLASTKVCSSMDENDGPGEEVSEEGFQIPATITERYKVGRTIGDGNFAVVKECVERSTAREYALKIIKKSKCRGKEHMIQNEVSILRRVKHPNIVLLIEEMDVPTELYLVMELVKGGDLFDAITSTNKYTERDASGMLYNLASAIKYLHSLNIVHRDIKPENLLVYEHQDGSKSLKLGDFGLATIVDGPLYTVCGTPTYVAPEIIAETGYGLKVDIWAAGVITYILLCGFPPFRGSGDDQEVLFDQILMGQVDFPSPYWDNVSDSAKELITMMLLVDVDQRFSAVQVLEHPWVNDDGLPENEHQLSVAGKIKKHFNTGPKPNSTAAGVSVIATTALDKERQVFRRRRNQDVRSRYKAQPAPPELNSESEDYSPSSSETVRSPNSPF
Put plainly: In vitro DCLK1 kinase activity assay (Eurofins). The format is biochemical. To be noted: for Selectivity (DCLK1 activity/LRRK2 activity): ratio of remaining activities at 1 uM; for DCLK1 activity (%) / activity at 1 µM: remaining kinase activity at 1 uM compound, 100% = no inhibition, 0% = complete inhibition; for activity at 1 µM: read-out: DCLK1 activity (%). An excerpt:
(§1) Eurofins (Belgium) conducted in vitro DCLK1 and LRRK2 kinase activity assays. Compounds were sent as dry powders to Eurofins.

Series [2] has as its target T2, LRRK2 (Homo sapiens, UniProt Q5S007).
T2 construct: purchased Eurofins (Belgium), contract assay service
Put plainly: In vitro LRRK2 kinase activity assay (Eurofins). Type of series: biochemical. To be noted: remaining kinase activity at 1 uM compound; 100% = no inhibition, 0% = complete inhibition. As for the experimental part:
All compounds were tested for their kinase inhibitory activity at the concentration of 1 μM. […] Compounds with high activity or good selectivity were selected for further IC50 determination (Table 2).
as §1

T2 sequence (Q5S007 whole entry): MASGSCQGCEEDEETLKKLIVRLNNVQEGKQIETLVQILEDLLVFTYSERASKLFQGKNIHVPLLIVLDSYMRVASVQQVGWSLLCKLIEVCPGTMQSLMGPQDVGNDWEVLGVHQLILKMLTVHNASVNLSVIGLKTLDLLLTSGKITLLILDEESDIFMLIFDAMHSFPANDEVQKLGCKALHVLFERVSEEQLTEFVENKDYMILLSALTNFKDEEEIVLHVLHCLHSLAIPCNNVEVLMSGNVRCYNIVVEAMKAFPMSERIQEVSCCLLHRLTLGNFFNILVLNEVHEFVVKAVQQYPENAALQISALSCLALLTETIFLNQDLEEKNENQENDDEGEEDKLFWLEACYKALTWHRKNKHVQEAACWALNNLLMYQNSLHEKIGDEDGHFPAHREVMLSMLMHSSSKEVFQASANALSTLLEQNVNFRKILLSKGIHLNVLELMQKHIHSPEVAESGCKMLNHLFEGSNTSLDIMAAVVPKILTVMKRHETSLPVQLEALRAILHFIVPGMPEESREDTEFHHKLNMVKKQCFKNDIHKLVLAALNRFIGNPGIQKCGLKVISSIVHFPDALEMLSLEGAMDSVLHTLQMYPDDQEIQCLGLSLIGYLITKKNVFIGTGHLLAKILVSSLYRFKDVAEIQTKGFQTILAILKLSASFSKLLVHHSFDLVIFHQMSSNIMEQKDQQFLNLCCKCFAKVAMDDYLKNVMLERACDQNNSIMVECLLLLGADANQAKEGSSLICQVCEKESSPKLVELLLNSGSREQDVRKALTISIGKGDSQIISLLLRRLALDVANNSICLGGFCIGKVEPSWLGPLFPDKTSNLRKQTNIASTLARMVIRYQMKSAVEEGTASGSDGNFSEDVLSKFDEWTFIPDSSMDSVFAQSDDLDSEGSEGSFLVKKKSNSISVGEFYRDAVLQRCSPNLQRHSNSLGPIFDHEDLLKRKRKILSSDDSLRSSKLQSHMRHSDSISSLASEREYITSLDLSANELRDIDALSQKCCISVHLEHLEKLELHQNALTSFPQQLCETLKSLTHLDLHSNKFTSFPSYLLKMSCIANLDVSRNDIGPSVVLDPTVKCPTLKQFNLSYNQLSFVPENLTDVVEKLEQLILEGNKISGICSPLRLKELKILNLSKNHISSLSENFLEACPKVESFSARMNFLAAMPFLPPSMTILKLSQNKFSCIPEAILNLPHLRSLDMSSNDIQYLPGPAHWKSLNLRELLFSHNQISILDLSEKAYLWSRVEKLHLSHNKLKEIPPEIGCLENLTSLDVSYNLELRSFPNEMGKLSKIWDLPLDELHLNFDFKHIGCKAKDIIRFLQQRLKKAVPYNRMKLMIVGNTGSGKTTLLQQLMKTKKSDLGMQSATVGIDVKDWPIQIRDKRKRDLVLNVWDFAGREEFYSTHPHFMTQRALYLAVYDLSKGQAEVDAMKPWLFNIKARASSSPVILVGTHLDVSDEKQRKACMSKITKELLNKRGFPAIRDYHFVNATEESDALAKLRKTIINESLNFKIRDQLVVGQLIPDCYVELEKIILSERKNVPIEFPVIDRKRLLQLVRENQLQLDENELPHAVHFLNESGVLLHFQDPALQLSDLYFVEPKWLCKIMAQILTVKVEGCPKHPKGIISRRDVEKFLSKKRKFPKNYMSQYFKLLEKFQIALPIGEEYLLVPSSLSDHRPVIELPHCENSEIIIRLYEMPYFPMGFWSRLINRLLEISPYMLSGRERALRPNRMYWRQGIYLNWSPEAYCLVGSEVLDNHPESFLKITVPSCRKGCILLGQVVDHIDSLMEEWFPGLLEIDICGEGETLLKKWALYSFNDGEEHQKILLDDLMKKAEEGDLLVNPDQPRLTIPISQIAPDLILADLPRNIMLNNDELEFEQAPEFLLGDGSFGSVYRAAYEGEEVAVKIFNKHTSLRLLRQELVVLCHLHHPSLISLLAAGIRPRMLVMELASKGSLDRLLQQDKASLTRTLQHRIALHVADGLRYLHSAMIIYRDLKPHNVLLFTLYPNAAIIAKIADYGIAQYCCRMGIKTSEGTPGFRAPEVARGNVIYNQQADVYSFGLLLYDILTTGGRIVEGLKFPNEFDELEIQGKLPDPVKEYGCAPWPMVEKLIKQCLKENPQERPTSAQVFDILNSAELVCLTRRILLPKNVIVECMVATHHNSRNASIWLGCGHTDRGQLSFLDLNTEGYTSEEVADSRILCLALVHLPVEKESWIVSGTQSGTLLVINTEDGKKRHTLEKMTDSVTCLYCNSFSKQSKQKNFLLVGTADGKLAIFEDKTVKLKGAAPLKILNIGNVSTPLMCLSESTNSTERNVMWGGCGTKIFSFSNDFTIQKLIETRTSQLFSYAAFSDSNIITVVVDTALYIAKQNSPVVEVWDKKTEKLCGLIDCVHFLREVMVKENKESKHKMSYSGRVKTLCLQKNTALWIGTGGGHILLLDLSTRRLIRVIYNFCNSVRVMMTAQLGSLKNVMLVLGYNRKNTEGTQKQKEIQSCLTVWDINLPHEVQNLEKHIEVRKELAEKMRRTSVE

As to “2-((2-Ethoxy-4-(4-hydroxypiperidin-1-yl)phenyl)amino)-5-methyl-5,11-dihydro-6H-benzo[e]pyrimido[5,4-b][1,4]diazepin-6-one [Compound B2]”, in series [1], the “Selectivity (DCLK1 activity/LRRK2 activity)” value was determined as 0.82 and the “DCLK1 activity (%)” value is on record as 59%. Moreover, the “LRRK2 activity (%)” value in series [2] is given as 72%.

For the compound “2-((2-Ethoxy-4-(4-hydroxypiperidin-1-yl)phenyl)amino)-11-methyl-5,11-dihydro-6H-benzo[e]pyrimido[5,4-b][1,4]diazepin-6-one [Compound B1]”, in series [1], the “Selectivity (DCLK1 activity/LRRK2 activity)” value is recorded as 1.34 and the “DCLK1 activity (%)” value was found to be 102%. Further, the “LRRK2 activity (%)” value in series [2] is 76%.

`CCOc1cc(N2CCC(O)CC2)ccc1Nc1ncc2c(n1)N(C)c1c(Cl)cccc1C(=O)N2C` [Compound A1, 10-Chloro-2-((2-ethoxy-4-(4-hydroxypiperidin-1-yl)phenyl)amino)-5,11-dimethyl-5,11-dihydro-6H-benzo[e]pyrimido[5,4-b][1,4]diazepin-6-one]: the melting point was 130 to 131 °C. Also, in series [1], the “Selectivity (DCLK1 activity/LRRK2 activity)” value is reported as 3.13 and the activity at 1 µM came out at 25%. Besides, the activity at 1 µM in series [2] was 8%.

Consider `CCOc1cc(N2CCC(O)CC2)ccc1Nc1ncc2c(n1)N(C)c1c(C)cccc1C(=O)N2C` [Compound A2, 2-((2-Ethoxy-4-(4-hydroxypiperidin-1-yl)phenyl)amino)-5,10,11-trimethyl-5,11-dihydro-6H-benzo[e]pyrimido[5,4-b][1,4]diazepin-6-one], for which the melting point is 177 to 178 °C. Besides, in series [1], the “Selectivity (DCLK1 activity/LRRK2 activity)” value is 1.03 and the activity at 1 µM worked out at 103%. Further, the activity at 1 µM in series [2] is 100%.

For the compound `CCOc1cc(N2CCC(O)CC2)ccc1Nc1ncc2c(n1)N(C)c1cc(Cl)ccc1C(=O)N2C` [Compound A3, 9-Chloro-2-((2-ethoxy-4-(4-hydroxypiperidin-1-yl)phenyl)amino)-5,11-dimethyl-5,11-dihydro-6H-benzo[e]pyrimido[5,4-b][1,4]diazepin-6-one], the melting point was 162 to 163 °C. In series [1], the “Selectivity (DCLK1 activity/LRRK2 activity)” value was determined as 0.97 and the activity at 1 µM worked out at 85%. In addition, in series [2], the activity at 1 µM was 88%.

On to `CCOc1cc(N2CCC(O)CC2)ccc1Nc1ncc2c(n1)N(C)c1cc(C)ccc1C(=O)N2C` [Compound A4, 2-((2-Ethoxy-4-(4-hydroxypiperidin-1-yl)phenyl)amino)-5,9,11-trimethyl-5,11-dihydro-6H-benzo[e]pyrimido[5,4-b][1,4]diazepin-6-one], for which the melting point is 171 to 172 °C. Also, in series [1], the “Selectivity (DCLK1 activity/LRRK2 activity)” value turned out to be 1.07 and the activity at 1 µM amounted to 89%. For the same compound, the activity at 1 µM in series [2] is 83%.

Turning to `CCOc1cc(N2CCC(O)CC2)ccc1Nc1ncc2c(n1)N(C)c1ccc(Cl)cc1C(=O)N2C` [Compound A5, 8-Chloro-2-((2-ethoxy-4-(4-hydroxypiperidin-1-yl)phenyl)amino)-5,11-dimethyl-5,11-dihydro-6H-benzo[e]pyrimido[5,4-b][1,4]diazepin-6-one], the melting point lay within 173 to 174 °C. In addition, in series [1], the “Selectivity (DCLK1 activity/LRRK2 activity)” value is 0.98 and the activity at 1 µM was 87%. Besides, in series [2], the activity at 1 µM was 89%.

In the case of `CCOc1cc(N2CCC(O)CC2)ccc1Nc1ncc2c(n1)N(C)c1ccc(C(F)(F)F)cc1C(=O)N2C` [Compound A7, 2-((2-Ethoxy-4-(4-hydroxypiperidin-1-yl)phenyl)amino)-5,11-dimethyl-8-(trifluoromethyl)-5,11-dihydro-6H-benzo[e]pyrimido[5,4-b][1,4]diazepin-6-one], the melting point lay within 119 to 120 °C. In series [1], the “Selectivity (DCLK1 activity/LRRK2 activity)” value was determined as 1.00 and the activity at 1 µM was 109%. The activity at 1 µM in series [2] is 109%.
